This is an account of results in ChEMBL document CHEMBL3132769, “Fragment growing to retain or alter the selectivity of anchored kinase hinge-binding fragments” (Medchemcomm, 2014).

Assay [1] concerns the target T1, Testis-specific serine/threonine-protein kinase 1 (Homo sapiens) (UniProt Q9BXA7).
T1 sequence (whole entry): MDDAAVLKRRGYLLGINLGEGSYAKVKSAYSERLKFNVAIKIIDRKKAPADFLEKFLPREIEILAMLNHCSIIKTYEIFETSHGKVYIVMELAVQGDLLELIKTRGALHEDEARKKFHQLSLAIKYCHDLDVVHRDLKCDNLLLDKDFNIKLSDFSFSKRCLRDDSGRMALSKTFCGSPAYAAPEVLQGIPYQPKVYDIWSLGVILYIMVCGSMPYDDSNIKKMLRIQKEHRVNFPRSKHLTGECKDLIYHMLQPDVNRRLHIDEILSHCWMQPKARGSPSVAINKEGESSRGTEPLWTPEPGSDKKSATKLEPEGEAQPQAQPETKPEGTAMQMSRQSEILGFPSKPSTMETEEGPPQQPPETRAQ
Put plainly: Inhibition of human full length TSSK1 expressed in baculovirus assessed as substrate phosphorylation using fluorescence-labelled peptides as substrate at 0.06 uM after 90 mins by microfluidic peptide phosphorylation assay.

Assay [2] deals with Serine/threonine-protein kinase PAK 2 (Homo sapiens) (UniProt Q13177). Put plainly: Inhibition of human truncated PAK2 expressed in Escherichia coli cell assessed as substrate phosphorylation using fluorescence-labelled peptides as substrate at 0.06 uM after 90 mins by microfluidic peptide phosphorylation assay.
Chain of Serine/threonine-protein kinase PAK 2 (Homo sapiens) (Q13177 whole entry, the tested form may be a part): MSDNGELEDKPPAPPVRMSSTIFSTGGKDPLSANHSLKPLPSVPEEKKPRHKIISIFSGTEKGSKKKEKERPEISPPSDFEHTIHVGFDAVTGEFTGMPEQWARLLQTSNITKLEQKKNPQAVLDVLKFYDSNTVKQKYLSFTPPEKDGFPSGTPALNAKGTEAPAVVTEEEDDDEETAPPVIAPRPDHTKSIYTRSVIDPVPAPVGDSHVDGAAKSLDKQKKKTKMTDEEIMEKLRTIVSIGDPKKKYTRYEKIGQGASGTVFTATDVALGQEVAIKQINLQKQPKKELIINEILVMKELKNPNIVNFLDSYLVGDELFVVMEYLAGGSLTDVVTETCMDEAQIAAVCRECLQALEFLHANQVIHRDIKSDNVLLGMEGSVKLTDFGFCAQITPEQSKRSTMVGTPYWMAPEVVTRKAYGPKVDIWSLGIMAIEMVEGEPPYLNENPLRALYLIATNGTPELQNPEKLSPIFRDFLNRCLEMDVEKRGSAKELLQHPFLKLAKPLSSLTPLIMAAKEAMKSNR
In assay [3] the target is Dual specificity tyrosine-phosphorylation-regulated kinase 1A (Rattus norvegicus) (UniProt Q63470). Put plainly: Inhibition of rat full length DYRK1a expressed in Escherichia coli cell assessed as substrate phosphorylation using fluorescence-labelled peptides as substrate at 95 uM after 90 mins by microfluidic peptide phosphorylation assay.
Assay [4] deals with T2, Serine/threonine-protein kinase Sgk2 (Homo sapiens) (UniProt Q9HBY8).
T2 sequence (whole entry): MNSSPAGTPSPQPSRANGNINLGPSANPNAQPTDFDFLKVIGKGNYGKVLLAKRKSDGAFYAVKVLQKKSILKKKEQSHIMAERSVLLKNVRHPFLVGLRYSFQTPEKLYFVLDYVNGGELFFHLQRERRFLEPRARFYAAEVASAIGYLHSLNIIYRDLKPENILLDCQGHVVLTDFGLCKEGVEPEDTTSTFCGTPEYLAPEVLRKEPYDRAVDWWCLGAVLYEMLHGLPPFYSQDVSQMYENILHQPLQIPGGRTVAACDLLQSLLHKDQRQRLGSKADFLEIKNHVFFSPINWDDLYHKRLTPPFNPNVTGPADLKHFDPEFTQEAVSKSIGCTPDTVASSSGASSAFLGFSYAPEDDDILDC
Put plainly: Inhibition of human full length SGK2 expressed in baculovirus assessed as substrate phosphorylation using fluorescence-labelled peptides as substrate at 8 uM after 90 mins by microfluidic peptide phosphorylation assay.

Assay [5] deals with Tyrosine-protein kinase ABL1 (Homo sapiens), P00519 [H396P]. Put plainly: Inhibition of human truncated ABL H396P mutant expressed in baculovirus assessed as substrate phosphorylation using fluorescence-labelled peptides as substrate at 8 uM after 90 mins by microfluidic peptide phosphorylation assay.
Assay [6] concerns the target Fibroblast growth factor receptor 3 (Homo sapiens) (UniProt P22607). Put plainly: Inhibition of human FGFR3 catalytic domain expressed in baculovirus assessed as substrate phosphorylation using fluorescence-labelled peptides as substrate at 8 uM after 90 mins by microfluidic peptide phosphorylation assay.
For assay [7], the target named is Tyrosine-protein kinase Lck (Homo sapiens) (UniProt P06239). Put plainly: Inhibition of human full length LCK expressed in baculovirus assessed as substrate phosphorylation using fluorescence-labelled peptides as substrate at 8 uM after 90 mins by microfluidic peptide phosphorylation assay.
Chain of Tyrosine-protein kinase Lck (Homo sapiens) (P06239 2-509 limits assumed): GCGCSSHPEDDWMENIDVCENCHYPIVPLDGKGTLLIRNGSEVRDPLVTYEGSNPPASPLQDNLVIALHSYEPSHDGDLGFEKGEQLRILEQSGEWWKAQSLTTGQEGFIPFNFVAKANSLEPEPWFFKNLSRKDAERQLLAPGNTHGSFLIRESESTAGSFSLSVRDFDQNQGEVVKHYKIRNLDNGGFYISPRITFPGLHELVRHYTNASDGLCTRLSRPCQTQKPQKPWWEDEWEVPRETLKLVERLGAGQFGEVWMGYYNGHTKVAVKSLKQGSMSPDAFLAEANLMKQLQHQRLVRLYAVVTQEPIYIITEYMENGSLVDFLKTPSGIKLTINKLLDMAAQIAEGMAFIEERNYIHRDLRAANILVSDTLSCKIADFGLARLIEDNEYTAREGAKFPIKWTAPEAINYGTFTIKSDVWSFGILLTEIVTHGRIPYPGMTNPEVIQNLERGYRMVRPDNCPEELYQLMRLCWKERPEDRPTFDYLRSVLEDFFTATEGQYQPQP
Assay [8] has as its target Tyrosine-protein kinase Lyn (Homo sapiens) (UniProt P07948). Put plainly: Inhibition of human full length LYN expressed in baculovirus assessed as substrate phosphorylation using fluorescence-labelled peptides as substrate at 1000 uM after 90 mins by microfluidic peptide phosphorylation assay.
Assay [9] addresses T3, Serine/threonine-protein kinase Nek2 (Homo sapiens) (UniProt P51955).
T3 sequence (whole entry): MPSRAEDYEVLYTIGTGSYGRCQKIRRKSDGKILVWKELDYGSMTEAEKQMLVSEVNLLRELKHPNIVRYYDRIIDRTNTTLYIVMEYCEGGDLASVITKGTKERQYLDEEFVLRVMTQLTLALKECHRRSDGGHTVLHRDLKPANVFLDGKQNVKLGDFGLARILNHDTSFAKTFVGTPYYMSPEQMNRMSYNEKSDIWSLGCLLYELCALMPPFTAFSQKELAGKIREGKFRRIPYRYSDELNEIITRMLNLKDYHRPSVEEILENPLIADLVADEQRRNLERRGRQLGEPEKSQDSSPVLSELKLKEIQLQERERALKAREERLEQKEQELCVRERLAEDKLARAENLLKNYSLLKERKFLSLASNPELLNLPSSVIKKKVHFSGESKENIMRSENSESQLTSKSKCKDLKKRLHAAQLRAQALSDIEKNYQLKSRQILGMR
Put plainly: Inhibition of human full length NEK2 expressed in baculovirus assessed as substrate phosphorylation using fluorescence-labelled peptides as substrate at 1000 uM after 90 mins by microfluidic peptide phosphorylation assay.

The target of assay [10] is Serine/threonine-protein kinase MARK1 (Homo sapiens) (UniProt Q9P0L2). Put plainly: Inhibition of human full length MARK1 expressed in baculovirus assessed as substrate phosphorylation using fluorescence-labelled peptides as substrate at 1000 uM after 90 mins by microfluidic peptide phosphorylation assay.
Chain of Serine/threonine-protein kinase MARK1 (Homo sapiens) (Q9P0L2 whole entry, looked up): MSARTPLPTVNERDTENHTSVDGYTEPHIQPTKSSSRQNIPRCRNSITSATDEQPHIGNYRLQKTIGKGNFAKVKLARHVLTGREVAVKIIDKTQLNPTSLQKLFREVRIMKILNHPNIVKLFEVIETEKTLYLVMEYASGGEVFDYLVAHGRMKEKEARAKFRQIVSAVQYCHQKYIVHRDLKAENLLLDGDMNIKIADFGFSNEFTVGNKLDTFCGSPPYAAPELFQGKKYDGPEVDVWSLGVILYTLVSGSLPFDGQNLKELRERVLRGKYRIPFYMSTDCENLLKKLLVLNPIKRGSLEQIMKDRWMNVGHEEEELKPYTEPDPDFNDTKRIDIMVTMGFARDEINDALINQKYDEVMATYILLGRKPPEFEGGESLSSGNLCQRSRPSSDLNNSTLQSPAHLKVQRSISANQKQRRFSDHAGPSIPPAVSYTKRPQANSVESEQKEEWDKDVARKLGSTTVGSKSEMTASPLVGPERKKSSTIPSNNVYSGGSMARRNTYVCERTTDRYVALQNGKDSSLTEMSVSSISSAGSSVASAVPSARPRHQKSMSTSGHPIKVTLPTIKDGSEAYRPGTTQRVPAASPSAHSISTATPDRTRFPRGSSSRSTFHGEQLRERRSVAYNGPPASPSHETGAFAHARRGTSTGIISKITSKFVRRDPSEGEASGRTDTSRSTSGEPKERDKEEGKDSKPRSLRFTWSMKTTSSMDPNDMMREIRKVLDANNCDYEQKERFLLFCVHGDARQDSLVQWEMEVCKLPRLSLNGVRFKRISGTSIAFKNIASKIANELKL
In assay [11] the target is T4, Cytoplasmic tyrosine-protein kinase BMX (Homo sapiens) (UniProt P51813).
T4 sequence (whole entry): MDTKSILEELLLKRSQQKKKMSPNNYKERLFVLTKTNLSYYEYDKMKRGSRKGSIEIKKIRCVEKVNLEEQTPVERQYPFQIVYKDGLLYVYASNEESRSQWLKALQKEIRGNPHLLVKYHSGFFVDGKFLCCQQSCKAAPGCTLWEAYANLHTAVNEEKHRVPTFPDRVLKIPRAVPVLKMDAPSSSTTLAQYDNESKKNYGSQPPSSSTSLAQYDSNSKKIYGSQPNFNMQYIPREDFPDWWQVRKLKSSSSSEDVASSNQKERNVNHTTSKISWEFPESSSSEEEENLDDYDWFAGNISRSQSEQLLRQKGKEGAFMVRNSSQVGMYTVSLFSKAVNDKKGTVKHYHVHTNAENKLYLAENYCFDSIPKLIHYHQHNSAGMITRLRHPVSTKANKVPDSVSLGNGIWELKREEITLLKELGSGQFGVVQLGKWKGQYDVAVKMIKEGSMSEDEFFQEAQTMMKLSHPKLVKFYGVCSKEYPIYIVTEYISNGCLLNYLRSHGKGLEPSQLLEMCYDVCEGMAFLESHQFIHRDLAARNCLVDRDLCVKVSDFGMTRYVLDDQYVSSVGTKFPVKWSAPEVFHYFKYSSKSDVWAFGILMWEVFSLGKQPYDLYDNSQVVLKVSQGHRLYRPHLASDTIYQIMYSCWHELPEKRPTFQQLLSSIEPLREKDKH
The assay is described as follows: Inhibition of human full length BMX expressed in baculovirus assessed as substrate phosphorylation using fluorescence-labelled peptides as substrate at 1000 uM after 90 mins by microfluidic peptide phosphorylation assay.

Chain of Tyrosine-protein kinase Lyn (Homo sapiens) (P07948 2-512 limits assumed): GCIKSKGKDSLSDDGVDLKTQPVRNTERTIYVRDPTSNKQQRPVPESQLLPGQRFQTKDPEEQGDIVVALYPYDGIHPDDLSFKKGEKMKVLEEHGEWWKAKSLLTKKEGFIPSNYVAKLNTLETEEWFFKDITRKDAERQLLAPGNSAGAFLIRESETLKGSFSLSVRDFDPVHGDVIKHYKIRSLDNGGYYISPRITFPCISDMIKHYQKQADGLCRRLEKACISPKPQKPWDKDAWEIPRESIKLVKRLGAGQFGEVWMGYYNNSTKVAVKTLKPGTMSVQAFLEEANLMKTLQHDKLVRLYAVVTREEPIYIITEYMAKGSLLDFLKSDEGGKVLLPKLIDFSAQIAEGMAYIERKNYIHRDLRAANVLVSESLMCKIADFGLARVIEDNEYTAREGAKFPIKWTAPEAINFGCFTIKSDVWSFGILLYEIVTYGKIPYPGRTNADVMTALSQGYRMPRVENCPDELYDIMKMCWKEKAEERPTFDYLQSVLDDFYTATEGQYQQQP
Chain of Fibroblast growth factor receptor 3 (Homo sapiens) (P22607 23-806 limits assumed): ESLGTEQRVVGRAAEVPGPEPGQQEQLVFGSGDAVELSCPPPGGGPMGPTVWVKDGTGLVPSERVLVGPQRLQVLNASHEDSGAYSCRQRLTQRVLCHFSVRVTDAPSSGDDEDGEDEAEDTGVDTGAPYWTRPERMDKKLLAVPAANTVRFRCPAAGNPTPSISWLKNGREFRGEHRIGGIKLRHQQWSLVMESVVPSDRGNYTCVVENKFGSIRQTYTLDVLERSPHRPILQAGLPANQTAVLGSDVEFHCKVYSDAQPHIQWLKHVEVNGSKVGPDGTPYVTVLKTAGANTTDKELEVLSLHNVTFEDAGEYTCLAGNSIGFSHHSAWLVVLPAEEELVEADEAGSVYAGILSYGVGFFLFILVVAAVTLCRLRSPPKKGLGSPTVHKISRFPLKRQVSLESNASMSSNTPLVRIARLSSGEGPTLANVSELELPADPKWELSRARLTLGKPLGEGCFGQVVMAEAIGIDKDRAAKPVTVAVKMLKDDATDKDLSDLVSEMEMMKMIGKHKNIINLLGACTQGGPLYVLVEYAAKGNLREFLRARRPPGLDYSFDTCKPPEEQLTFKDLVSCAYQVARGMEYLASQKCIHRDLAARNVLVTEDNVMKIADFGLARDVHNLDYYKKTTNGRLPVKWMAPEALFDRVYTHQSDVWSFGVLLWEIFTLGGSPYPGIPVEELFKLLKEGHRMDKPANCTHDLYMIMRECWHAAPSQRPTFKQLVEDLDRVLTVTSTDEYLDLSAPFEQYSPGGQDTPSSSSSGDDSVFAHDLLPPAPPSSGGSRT

Broadly, the inhibition is how much of the control response was suppressed. Consider `NC1(Cc2ccc(Cl)cc2)CCN(c2ncnc3[nH]ccc23)CC1`, for which the values for the inhibition in assay [1] and in assay [2] were 0% and 1.5%, respectively.
Consider `NCCc1ccc(-c2ncnc3[nH]cnc23)cc1`, for which, in assay [3], the inhibition came out at 79%.
Regarding `NCC1CCN(c2ncnc3[nH]ccc23)CC1`, the inhibition in assay [4] was 69%; in assay [5], 20.5%; in assay [6], 0.5%; in assay [7] it was 48.5%.
For the molecule `c1cnc2[nH]ccc2c1`, the inhibition stood at 31.5% in assay [8], 2.5% in assay [9], 93.5% in [10] and 22% in assay [11].
